Here are results for four compounds from patent US20200172529A1, “Chemical Compound, Pharmaceutical Composition Thereof, and Use and Application Thereof” (Beijing Hanmi Pharm. Co., Ltd., priority 2017, published 2020).

What all share (type): biochemical
The target in one test is T1, TYK2 kinase (Homo sapiens, UniProt P29597).
T1 construct: purchased Life Technologies PR8440C
The experiment in a line: Inhibition assay of TYK2 kinase activity (ADP-Glo Kinase Assay). In outline: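 Enzyme at 0.8 ng/mL (2-fold final) in 40 mM Tris-HCl pH 7.5, 20 mM MgCl2, 0.1 mg/mL BSA, 1 mM DTT, preincubated 10 min with compound (6 points, 10-fold dilutions from 10 μM). ATP plus polyE4Y1 then added for 60 min at room temperature. ADP-Glo luminescence read and IC50 derived.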

The target in a further test is JAK1 kinase (Homo sapiens, UniProt P23458). The experiment in a line: Inhibition assay of JAK1 kinase activity (ADP-Glo Kinase Assay). The source says: Inhibition assay of JAK1 kinase activity: the method in ADP-Glo™ Kinase Assay (Promega, V9102) was used to determine the inhibitory activity of the test compounds against JAK1 kinase.
Sequence of JAK1 kinase (P23458 whole entry): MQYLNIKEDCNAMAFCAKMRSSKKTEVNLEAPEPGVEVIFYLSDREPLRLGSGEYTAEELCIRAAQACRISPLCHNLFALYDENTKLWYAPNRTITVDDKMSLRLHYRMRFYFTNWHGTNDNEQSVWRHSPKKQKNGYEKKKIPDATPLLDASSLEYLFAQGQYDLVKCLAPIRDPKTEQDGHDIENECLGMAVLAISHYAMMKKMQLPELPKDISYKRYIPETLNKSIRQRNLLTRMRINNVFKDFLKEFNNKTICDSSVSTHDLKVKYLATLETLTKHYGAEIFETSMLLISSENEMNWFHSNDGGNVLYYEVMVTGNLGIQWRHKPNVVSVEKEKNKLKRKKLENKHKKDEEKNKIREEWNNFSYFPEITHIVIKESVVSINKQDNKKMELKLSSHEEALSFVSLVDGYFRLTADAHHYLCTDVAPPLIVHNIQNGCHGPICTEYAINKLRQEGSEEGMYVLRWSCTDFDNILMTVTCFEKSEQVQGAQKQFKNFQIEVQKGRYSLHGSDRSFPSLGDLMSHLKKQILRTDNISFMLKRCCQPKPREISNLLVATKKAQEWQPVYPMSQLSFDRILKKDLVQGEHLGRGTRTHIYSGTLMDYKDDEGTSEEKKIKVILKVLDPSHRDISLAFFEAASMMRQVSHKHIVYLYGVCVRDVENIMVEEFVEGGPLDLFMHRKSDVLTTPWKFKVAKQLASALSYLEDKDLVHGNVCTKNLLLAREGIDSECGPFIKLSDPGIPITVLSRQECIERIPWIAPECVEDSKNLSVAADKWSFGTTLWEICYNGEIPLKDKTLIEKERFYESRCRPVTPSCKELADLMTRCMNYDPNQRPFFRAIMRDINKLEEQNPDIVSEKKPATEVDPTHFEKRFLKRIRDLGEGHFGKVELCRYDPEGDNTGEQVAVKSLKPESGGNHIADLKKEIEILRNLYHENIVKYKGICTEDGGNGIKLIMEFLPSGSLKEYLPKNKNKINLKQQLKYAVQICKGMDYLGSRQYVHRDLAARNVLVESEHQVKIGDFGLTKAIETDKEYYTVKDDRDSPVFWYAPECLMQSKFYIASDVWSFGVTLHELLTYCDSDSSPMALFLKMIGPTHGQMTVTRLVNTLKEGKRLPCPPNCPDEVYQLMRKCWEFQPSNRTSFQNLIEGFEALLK
For the next test, the target named is SYK kinase (Homo sapiens, UniProt P43405). The experiment in a line: Inhibition assay of SYK kinase activity (ADP-Glo Kinase Assay). From the text: Inhibition assay of SYK kinase activity: the method in ADP-Glo™ Kinase Assay (Promega, V9102) was used to determine the inhibitory activity of the test compounds against SYK kinase.
Another test concerns the target JAK2 kinase (Homo sapiens, UniProt O60674). Briefly: Inhibition assay of JAK2 kinase activity (ADP-Glo Kinase Assay). From the text:
Inhibition assay of JAK2 kinase activity: the method in ADP-Glo™ Kinase Assay (Promega, V9102) was used to determine the inhibitory activity of the test compounds against JAK2 kinase.

A further test concerns the target T2, JAK3 kinase (Homo sapiens, UniProt P52333).
T2 sequence (P52333 1-1124): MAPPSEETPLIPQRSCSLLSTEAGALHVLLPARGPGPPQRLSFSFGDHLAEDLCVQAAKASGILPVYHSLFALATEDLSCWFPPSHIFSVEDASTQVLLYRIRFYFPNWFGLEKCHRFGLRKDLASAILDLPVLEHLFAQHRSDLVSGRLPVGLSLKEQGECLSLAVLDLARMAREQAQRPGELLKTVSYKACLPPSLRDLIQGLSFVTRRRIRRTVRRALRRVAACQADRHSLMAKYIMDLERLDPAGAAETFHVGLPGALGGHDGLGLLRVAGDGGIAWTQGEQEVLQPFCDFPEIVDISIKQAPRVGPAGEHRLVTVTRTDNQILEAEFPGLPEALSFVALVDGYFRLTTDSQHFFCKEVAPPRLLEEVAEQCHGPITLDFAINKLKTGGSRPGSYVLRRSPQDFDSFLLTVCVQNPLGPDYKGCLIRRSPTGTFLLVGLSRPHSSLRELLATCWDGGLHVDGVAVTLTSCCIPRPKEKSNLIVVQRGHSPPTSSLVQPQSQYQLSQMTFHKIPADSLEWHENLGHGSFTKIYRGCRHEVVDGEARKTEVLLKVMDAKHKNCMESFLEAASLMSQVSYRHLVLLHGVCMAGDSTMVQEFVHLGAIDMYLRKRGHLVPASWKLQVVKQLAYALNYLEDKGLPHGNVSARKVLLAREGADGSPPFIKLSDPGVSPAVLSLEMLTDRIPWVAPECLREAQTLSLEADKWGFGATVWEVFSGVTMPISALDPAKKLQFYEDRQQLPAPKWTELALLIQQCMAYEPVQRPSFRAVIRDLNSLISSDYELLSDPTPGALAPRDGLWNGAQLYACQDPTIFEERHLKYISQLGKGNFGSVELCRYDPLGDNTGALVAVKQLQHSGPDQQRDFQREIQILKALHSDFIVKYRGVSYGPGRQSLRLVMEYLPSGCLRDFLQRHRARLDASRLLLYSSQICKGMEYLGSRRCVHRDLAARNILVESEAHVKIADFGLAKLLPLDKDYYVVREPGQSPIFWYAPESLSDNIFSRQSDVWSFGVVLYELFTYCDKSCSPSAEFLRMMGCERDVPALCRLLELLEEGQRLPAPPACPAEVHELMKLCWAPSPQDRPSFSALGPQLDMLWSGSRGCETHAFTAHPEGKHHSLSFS
The experiment in a line: Inhibition assay of JAK3 kinase activity (ADP-Glo Kinase Assay). The source says:
Inhibition assay of JAK3 kinase activity: the method in ADP-Glo™ Kinase Assay (Promega, V9102) was used to determine the inhibitory activity of the test compounds against JAK3 kinase.

Each structure is given as a SMILES string. Bounds are passed on as bounds.

T1 sequence (P29597 whole entry): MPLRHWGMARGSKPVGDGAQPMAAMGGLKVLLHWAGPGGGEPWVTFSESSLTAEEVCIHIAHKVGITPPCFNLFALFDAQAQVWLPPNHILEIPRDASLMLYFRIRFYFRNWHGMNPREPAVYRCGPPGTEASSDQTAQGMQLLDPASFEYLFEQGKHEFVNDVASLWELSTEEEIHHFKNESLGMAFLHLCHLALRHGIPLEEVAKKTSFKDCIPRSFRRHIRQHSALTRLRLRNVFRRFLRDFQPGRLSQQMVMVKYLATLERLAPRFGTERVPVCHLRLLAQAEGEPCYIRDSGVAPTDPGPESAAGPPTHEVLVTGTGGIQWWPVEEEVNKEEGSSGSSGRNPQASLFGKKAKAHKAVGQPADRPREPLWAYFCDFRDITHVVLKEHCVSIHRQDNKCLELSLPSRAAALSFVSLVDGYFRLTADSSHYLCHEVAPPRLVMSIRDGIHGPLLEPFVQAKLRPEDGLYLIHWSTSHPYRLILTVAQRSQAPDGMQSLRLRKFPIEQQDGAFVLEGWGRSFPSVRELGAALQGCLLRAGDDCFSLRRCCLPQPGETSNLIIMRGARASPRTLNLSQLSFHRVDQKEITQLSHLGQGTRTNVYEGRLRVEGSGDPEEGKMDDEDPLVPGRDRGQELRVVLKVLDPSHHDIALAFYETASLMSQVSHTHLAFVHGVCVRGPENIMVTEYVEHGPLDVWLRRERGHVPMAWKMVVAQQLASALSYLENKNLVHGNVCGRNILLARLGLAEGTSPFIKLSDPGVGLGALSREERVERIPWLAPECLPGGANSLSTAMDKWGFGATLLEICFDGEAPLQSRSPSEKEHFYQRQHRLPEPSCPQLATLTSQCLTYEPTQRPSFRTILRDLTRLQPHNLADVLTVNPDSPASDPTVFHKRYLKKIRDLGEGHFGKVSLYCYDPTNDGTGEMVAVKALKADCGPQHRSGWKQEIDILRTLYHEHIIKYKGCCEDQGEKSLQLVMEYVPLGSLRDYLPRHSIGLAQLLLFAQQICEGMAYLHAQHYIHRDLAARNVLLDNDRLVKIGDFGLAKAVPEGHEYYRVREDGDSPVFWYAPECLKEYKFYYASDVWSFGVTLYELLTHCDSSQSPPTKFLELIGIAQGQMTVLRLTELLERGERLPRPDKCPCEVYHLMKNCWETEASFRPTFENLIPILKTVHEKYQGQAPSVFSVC
Sequence of JAK2 kinase (O60674 whole entry): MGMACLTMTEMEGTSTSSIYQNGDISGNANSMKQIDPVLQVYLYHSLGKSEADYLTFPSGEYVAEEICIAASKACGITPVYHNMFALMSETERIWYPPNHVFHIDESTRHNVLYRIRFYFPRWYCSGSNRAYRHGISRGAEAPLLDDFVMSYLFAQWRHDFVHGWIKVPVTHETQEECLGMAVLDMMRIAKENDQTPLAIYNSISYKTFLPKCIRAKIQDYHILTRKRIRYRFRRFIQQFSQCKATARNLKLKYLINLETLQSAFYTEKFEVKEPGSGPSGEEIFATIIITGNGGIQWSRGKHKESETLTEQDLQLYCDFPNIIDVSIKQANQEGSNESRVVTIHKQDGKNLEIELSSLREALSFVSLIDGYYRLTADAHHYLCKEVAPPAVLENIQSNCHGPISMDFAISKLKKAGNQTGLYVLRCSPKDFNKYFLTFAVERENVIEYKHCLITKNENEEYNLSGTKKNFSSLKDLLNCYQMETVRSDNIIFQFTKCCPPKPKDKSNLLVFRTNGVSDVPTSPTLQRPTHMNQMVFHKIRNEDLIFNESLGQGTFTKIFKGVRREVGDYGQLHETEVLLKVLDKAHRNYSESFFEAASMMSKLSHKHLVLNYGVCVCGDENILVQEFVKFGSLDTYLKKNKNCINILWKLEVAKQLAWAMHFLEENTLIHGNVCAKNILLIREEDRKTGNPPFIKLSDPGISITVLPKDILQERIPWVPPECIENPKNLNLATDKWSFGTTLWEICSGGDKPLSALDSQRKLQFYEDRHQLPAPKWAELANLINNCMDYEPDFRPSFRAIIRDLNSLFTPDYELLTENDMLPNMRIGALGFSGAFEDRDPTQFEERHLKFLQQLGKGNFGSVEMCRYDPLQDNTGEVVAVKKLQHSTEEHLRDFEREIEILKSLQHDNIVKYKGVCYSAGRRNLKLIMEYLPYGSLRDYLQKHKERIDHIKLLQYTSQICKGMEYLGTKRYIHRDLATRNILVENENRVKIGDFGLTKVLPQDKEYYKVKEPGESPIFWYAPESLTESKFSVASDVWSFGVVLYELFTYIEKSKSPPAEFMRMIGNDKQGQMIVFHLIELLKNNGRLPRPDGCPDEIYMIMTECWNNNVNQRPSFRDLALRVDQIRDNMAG

Regarding `CC(C)OCCO[C@H]1CNc2cc(Nc3ncc(C(N)=O)c(NC4CC4)n3)ccc2OC1` [Example 96, 4-(cyclopropylamino)-2-(((S)-2,3,4,5-tetrahydro-3-(2-isopropoxyethoxy)benzo[b][1,4]oxazepin-7-yl)amino)pyrimidin-5-carboxamide], the 50% inhibitory concentration (IC50) was < 0.01 µM against TYK2 kinase; < 0.01 µM against JAK1 kinase; 0.01 to 0.1 µM against SYK kinase; 0.01 to 0.1 µM against JAK2 kinase; 0.01 to 0.1 µM at JAK3 kinase.

For `NC(=O)c1cnc(Nc2ccc3c(c2)NC[C@H](OCC2CCCO2)CO3)nc1NC1CC1` (stereo partly drawn) [Example 97, 4-(cyclopropylamino)-2-(((S)-2,3,4,5-tetrahydro-3-((tetrahydrofuran-2-yl)methoxy)benzo[b][1,4]oxazepin-7-yl)amino)pyrimidin-5-carboxamide], the IC50 on TYK2 kinase is < 0.01 µM; at JAK1 kinase, < 0.01 µM; against SYK kinase, 0.01 to 0.1 µM; against JAK2 kinase, 0.01 to 0.1 µM; at JAK3 kinase it was 0.01 to 0.1 µM.

As to `COCCCO[C@H]1CNc2cc(Nc3ncc(C(N)=O)c(NC4CC4)n3)ccc2OC1` [Example 98, 4-(cyclopropylamino)-2-(((S)-2,3,4,5-tetrahydro-3-(3-methoxypropoxy)benzo[b][1,4]oxazepin-7-yl)amino)pyrimidin-5-carboxamide], the IC50 at TYK2 kinase is < 0.01 µM; at JAK1 kinase, < 0.01 µM; on SYK kinase it was 0.01 to 0.1 µM; against JAK2 kinase it was 0.01 to 0.1 µM; at JAK3 kinase, 0.01 to 0.1 µM.

As for `CC1(CO[C@H]2CNc3cc(Nc4ncc(C(N)=O)c(NC5CC5)n4)ccc3OC2)COC1` [Example 101, 4-(cyclopropylamino)-2-(((S)-2,3,4,5-tetrahydro-3-((3-methyloxetan-3-yl)methoxy)benzo[b][1,4]oxazepin-7-yl)amino)pyrimidin-5-carboxamide], the IC50 against TYK2 kinase is < 0.01 µM; on JAK1 kinase, < 0.01 µM; at SYK kinase it was 0.01 to 0.1 µM; against JAK2 kinase it was 0.01 to 0.1 µM; against JAK3 kinase it was 0.01 to 0.1 µM.
